# Results published in ChEMBL document CHEMBL2073745, “Disruption of the mouse mdr1a P-glycoprotein gene leads to a deficiency in the blood-brain barrier and to increased sensitivity to drugs” (Cell, 1994).
# Molecular target: ATP-dependent translocase ABCB1 (Mus musculus, UniProt P21447)
# Test: TP_TRANSPORTER: increase in plasma concentration in mdr1a(-/-) mouse
# Type: functional, organism-based
# Details: in vivo
# ATP-dependent translocase ABCB1, sequence (P21447 whole entry): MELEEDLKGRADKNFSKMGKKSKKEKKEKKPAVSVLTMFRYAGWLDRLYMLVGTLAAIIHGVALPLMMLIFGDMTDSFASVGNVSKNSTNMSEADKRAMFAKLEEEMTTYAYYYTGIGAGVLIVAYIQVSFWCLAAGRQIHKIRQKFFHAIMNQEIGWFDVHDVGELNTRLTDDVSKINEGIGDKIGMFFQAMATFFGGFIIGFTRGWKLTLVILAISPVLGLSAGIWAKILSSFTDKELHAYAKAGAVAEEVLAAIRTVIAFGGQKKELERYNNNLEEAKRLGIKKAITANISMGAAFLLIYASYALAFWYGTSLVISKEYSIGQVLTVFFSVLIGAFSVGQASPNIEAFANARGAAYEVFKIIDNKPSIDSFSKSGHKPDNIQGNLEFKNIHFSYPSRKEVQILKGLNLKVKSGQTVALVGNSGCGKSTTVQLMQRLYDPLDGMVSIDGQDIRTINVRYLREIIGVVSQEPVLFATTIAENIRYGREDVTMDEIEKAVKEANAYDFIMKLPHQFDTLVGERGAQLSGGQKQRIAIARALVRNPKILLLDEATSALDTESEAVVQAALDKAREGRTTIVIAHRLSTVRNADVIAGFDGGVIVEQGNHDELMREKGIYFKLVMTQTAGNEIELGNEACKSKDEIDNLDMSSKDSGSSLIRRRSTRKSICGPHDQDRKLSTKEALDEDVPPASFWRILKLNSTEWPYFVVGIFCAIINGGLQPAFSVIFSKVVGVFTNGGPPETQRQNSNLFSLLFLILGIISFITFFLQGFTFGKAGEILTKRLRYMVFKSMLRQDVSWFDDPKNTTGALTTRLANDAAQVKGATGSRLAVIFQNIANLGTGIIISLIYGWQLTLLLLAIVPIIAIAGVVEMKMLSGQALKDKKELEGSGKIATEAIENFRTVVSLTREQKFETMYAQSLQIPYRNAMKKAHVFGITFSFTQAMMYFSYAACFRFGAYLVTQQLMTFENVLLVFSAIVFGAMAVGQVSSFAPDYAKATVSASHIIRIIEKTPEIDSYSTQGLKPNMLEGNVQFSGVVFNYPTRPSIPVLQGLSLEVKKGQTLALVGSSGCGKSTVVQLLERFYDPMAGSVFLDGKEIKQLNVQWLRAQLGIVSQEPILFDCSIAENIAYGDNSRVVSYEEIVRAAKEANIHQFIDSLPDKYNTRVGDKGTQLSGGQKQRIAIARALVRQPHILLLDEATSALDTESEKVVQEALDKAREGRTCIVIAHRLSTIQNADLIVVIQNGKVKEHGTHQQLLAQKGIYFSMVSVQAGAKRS
sequence,measurement,value
IVERMECTIN,Activity,substrate [+]
